From publication PMC11061419, “Identification of novel small molecule inhibitors of twin arginine translocation (Tat) pathway and their effect on the control of Campylobacter jejuni in chickens” (Frontiers in Microbiology, 2024)
In brackets after ≈: the same amount, converted by molar mass.

Tests used:
[1] = test system: C. jejuni Au-45; assay: Copper sulfate sensitivity dose–response assay in vitro (MIC/MBC); format: cell-based; conditions: Campylobacter jejuni; for MIC: AU45, read-out: MIC, Au-45 (Table S4); for MBC: AU45, 0.5 mM CuSO4, read-out: MBC, Au-45 (Table S5)
Procedure: (§1) Campylobacter jejuni 81–176 was the primary model strain used for the selection of the potential Tat-dependent inhibitors by high-throughput screening. C. jejuni 81–176 is resistant to 0.5 and 1 mM CuSO4 (Supplementary Figure S1). C. jejuni 81–176 tatC knockout mutant (C. jejuni ΔtatC) was used to confirm the Tat-dependent inhibitory effect of the selected SM. C. jejuni ΔtatC is susceptible to 0.5 mM and higher of CuSO4 ([Rajashekara et al., 2009]). The specificity of the Tat-dependent inhibitors was also tested on 11 additional Campylobacter strains (C. coli ATCC33559 and 10 other C. jejuni strains isolated from chickens) and 7 commensal/beneficial bacteria (Supplementary Table S1). The […] (Au-13, Au-20, Au-38, Au-39, Au-47, Au-50, Au-24, Au-32, Au-44, and Au-45) were selected based on their single nucleotide polymorphism (SNP)-type and percent of prevalence in chickens ([Merchant-Patel et al., 2008]; [Kumar et al., 2016]). Additional details about the bacterial strains are shown in Supplementary Table S1.
(§2) In total, 19 SMs were two-fold serially diluted to obtain a final SM concentration ranging from 6.25 to 0.012 μg/mL. C. jejuni 81–176 was then treated with a determined concentration of SM, as described in the copper sensitivity assay. […] The lowest bactericidal SM concentration was considered the MBC (no increase in OD600 over time and no viable cells were recovered on agar plate after challenge) (N = 3 replicates per SM). […] However, these SMs were two-fold serially diluted to obtain a final SM concentration ranging from 5 μg to 0.0625 μg for testing (N = two independent experiments with four technical replicate for each SM).

[2] = test system: C. jejuni Au-39; assay: as above; format: cell-based; conditions: Campylobacter jejuni; for MIC: AU39, read-out: MIC, Au-39 (Table S4); for MBC: AU39, 0.5 mM CuSO4, read-out: MBC, Au-39 (Table S5)
Procedure: as §1, §2

[3] = test system: C. coli ATCC33559; assay: as above; format: cell-based; conditions: Campylobacter coli; for MIC: ATCC33559, read-out: MIC, C. coli (Table S4); for MBC: ATCC33559, 0.5 mM CuSO4, read-out: MBC, C. coli (Table S5)
Procedure: as §1, §2

[4] = test system: C. jejuni Au-20; assay: as above; format: cell-based; conditions: Campylobacter jejuni; for MIC: AU20, read-out: MIC, Au-20 (Table S4); for MBC: AU20, 0.5 mM CuSO4, read-out: MBC, Au-20 (Table S5)
Procedure: as §1, §2

[5] = test system: Campylobacter spp. (12 strains); assay: Activity spectrum against Campylobacter strains at 6.25 μg/mL with 0.5 mM CuSO4; format: cell-based, Campylobacter jejuni, Campylobacter coli; conditions: 6.25 μg/mL SM
[6] = test system: C. jejuni (mixture of five strains) in chicken ceca; assay: C. jejuni persistence in ceca of 3-week-old colonized chickens; format: in vivo; conditions: 3-week-old chickens, oral twice a day for 5 days, approximately 0.127 mg of SM per kg body weight
Procedure: The antimicrobial efficacy of T1, T7, and T8 was also tested on 3-week-old chickens to assess the clearance of C. jejuni load in chicken right after inoculation. Overall, 3-week-old Campylobacter-free chickens were inoculated orally with a mixture of five C. jejuni strains (10^5 CFU/chicken, Supplementary Table S3). Rectal swabs were collected 1 DPI to confirm the intestinal colonization of the birds by C. jejuni (CFU/g of feces). From 2 DPI, chickens were treated orally twice a day for 5 days (from 2 DPI to 7 DPI) with one of the SMs (T1, T7, or T8; approximately 0.127 mg of SM per kg body weight; n = 5–6 chicken per group). Details of the treatment groups and the inoculum are shown in Supplementary Table S3.
For both experiments, C. jejuni colonized-chickens treated with 0.0001% DMSO and colonized chickens without additional carrier treatment (non-treated) were used as controls (n = 3–6 chicken per group). Details of the treatment groups and the inoculum are shown in Supplementary Table S3. Both 3 and 5-week-old chickens were euthanized at 7 DPI using carbon dioxide gas and ceca (cecal content and the pouch) and were aseptically collected. One of the ceca pairs was immediately stored at −80°C for microbiota studies. […]

[7] = test system: Caco-2 cells; assay: Cytotoxicity on Caco-2 colon epithelial cells (LDH assay); format: cell-based; conditions: for cytotoxicity index on Caco-2 cells: 5 μg SM /ml, 24 h; for toxicity level to Caco-2 cells: 25 μg/mL or 50 μg/mL of SM for 24 h
Procedure: Cytotoxicity of the eight SMs (T1-T8) was tested on Caco-2 cells at 5, 25, and 50 μg/mL, as previously described ([Kumar et al., 2016]; [Deblais et al., 2019]). In brief, a 96-well plate seeded with approximately 1.4 × 10^5 Caco-2 cells/well in MEM medium was challenged with a final SM concentration of 5, 25, and 50 μg/mL. After 24 h of incubation at 37°C in a humidified 5% CO2 incubator, cytotoxic effects were determined using the PierceTM Lactate Dehydrogenase Cytotoxicity Assay Kit (Thermo Fisher Scientific). Cell death was measured based on the production of formazan (chromogenic dye), which can be read at OD570. Equal concentrations (5, 25, and 50 μg/mL) of kanamycin or chloramphenicol, 1% DMSO, and 10X lysis buffer were used as control. The cytotoxicity level was calculated according to the manufacturer’s instructions (N = two independent experiments with three technical replicate for each SM).

[8] = test system: C. jejuni 81–176; assay: Copper sulfate sensitivity dose–response assay in vitro (MIC/MBC); format: cell-based, Campylobacter jejuni; conditions: for MBC / MIC: Campylobacter jejuni, 0.5 mM CuSO4, head displaced; for MBC: read-out: MBC, C. jejuni (Table S5); for MIC: read-out: MIC, C. jejuni (Table S4); for C. jejuni 81–176 in vitro MBC: minimal bactericidal concentration in presence of 0.5 mM CuSO4; for C. jejuni 81–176 in vitro MIC: minimal bacteriostatic concentration in presence of 0.5 mM CuSO4
Procedure: as §2

Row | SMILES | MIC [1] | MBC [1] | MIC [2] | MBC [2] | MIC [3] | MBC [3] | MIC [4] | MBC [4] | Growth inhibition at 6.25 μg/mL, Campylobacter spp. (strains inhibited/tested) [5] | reduction in C. jejuni population per gram of cecal contents compared with the DMSO-treated group [6] | cytotoxicity index on Caco-2 cells [7] | MBC [8] | MIC [8] | C. jejuni 81–176 in vitro MBC [8] | C. jejuni 81–176 in vitro MIC [8] | toxicity level to Caco-2 cells [7]
1 | CSc1ccccc1-c1nnc(NC(=O)Cc2ccccc2)o1 [T7] | 0.16 µg/mL (≈ 0.492 µM) | 0.32 µg/mL (≈ 0.983 µM) | 0.31 µg/mL (≈ 0.953 µM) | 0.62 µg/mL (≈ 1.91 µM) | 0.16 µg/mL (≈ 0.492 µM) | 0.32 µg/mL (≈ 0.983 µM) | 0.16 µg/mL (≈ 0.492 µM) | 0.32 µg/mL (≈ 0.983 µM) | 12/12 | 0.9 log | < 20% | 0.16 µg/mL (≈ 0.492 µM) | 0.02 µg/mL (≈ 0.0615 µM) | 0.16 µg/mL | 0.02 µg/mL | 
2 | CCCNC(=S)Nc1cc(OC)cc(OC)c1 [T1] | 0.31 µg/mL (≈ 1.22 µM) | 0.62 µg/mL (≈ 2.44 µM) | 0.31 µg/mL (≈ 1.22 µM) | 0.62 µg/mL (≈ 2.44 µM) | 0.31 µg/mL (≈ 1.22 µM) | 0.62 µg/mL (≈ 2.44 µM) | 0.31 µg/mL (≈ 1.22 µM) | 0.62 µg/mL (≈ 2.44 µM) | 12/12 |  | < 20% | 0.62 µg/mL (≈ 2.44 µM) | 0.19 µg/mL (≈ 0.747 µM) | 0.62 µg/mL | 0.19 µg/mL | 36%
3 | CC(C)(C)NC(=S)NNc1c(Cl)cncc1Cl [T2] | 0.62 µg/mL (≈ 2.11 µM) | 1.24 µg/mL (≈ 4.23 µM) | 0.31 µg/mL (≈ 1.06 µM) | 0.62 µg/mL (≈ 2.11 µM) | 0.62 µg/mL (≈ 2.11 µM) | 1.24 µg/mL (≈ 4.23 µM) | 0.62 µg/mL (≈ 2.11 µM) | 1.24 µg/mL (≈ 4.23 µM) | 12/12 |  | < 20% | 0.62 µg/mL (≈ 2.11 µM) | 0.01 µg/mL (≈ 0.0341 µM) | 0.62 µg/mL | 0.01 µg/mL | 
4 | CCN(CC)/C(C)=N/C(=O)Nc1ccccc1 [T8] | 0.25 µg/mL (≈ 1.07 µM) | 0.25 µg/mL (≈ 1.07 µM) | 0.25 µg/mL (≈ 1.07 µM) | 0.25 µg/mL (≈ 1.07 µM) | 0.25 µg/mL (≈ 1.07 µM) | 0.25 µg/mL (≈ 1.07 µM) | 0.25 µg/mL (≈ 1.07 µM) | 0.25 µg/mL (≈ 1.07 µM) | 12/12 |  | < 20% | 0.12 µg/mL (≈ 0.514 µM) | 0.08 µg/mL (≈ 0.343 µM) | 0.12 µg/mL | 0.08 µg/mL | 33%
